Laboratory results reported in patent publication US10716805B2, “Formulation for release of nitric oxide” (Glanotech Limited, priority 2018, dated 2020).
Entries after “also recorded” stand apart in the source; their conditions may differ.

Tests used:
[1] = system: corpus cavernosum tissue; assay: In-vitro relaxation/contraction of rat corpus cavernosum tissue (force displacement transducer); format: cell-based; conditions: for relaxation of the tissue of the corpora cavernosa pre-constricted with norepinephrine (vasodilatory effect): scalar solutions 10^−s M to 10^−3 M after norepinephrine constriction of about 1.5 mN
Source text: In particular, this model is used for planning experiments aimed at checking the vasodilatory action of NO on vascular smooth muscle cells, since the methodology presented by the authors allows samples of corpus cavernosum tissue to be obtained from rats, on which studies of response to various exogenous molecules can be conducted, to detect their relaxation/contraction effects on smooth muscle cells.
We used 20 adult Wistar-type rats weighing between 175 and 200 g; after having sacrificed the rats we obtained corpus cavernosum tissues as described by the methods and placed these in a Krebs solution (in mM: 118 NaCl, 4.7 KCl, 1.2 KH2PO4, 1.2 MgSO4, 1.5 CaCl2, 25 NaHCO3, 11 glucose).
A single sample was taken from each rat.
The excised tissues were then put in 10 mL Krebs solution and held in place by two metal arms to allow assessment of any changes in the forces observed and assessed by the Grass FT03 model (using a force displacement transducer apparatus to assess the muscle tension of tissues, calibrated in mN). The saline solution containing the tissues (Krebs solution) was kept at pH 7.4±0.1 and at 37° C., with oxygenation using a mixture of 95% oxygen and 5% carbon dioxide.

[2] = system: rat model with type 1 diabetes induced by streptozotocin; assay: In-vivo test of sexual function in diabetic rat models; conditions: for EL (Ejaculation latency) / IF (Introduction frequency) / IL (Introduction latency) / MF (Mating frequency) / ML (Mating latency) / PEI (Post-ejaculatory interval): diabetic rat
Description: Next we tested the possible beneficial effects of SNO-pantetheine on sexual function in a rat model with type 1 diabetes induced by streptozotocin, which is typically accompanied by deficit of sexual activity.
In short, male Wistar rats were assigned to a cage (45×50×35 cm) covered in glass and lit with red light. Training took place every day after 5 pm for about 30 min, and after 10 minutes of acclimatization a female rat in an oestrogenic phase was introduced into the cage. We then observed the sexual behaviour of diabetic rats vs. the relevant controls by measuring standard parameters (Burnett et al., 1995).

[3] = Formation and stability of nitrosothiol after mixing of phases A and B (visible UV absorption spectrum); format: physicochemical; conditions: at room temperature
Description: The reaction mixture is prepared by dissolving the following amounts of reagents in 5 mL propylene glycol: fumaric acid 10 mM; ascorbic acid between 30 and 50 mM (PHASE A).
A solid phase, consisting of a mixture of pantetheine, sodium nitrite and powdered copper sulfate, is added rapidly to the solution obtained, in a quantity such that their concentration in the final reaction volume amounts to: pantetheine 10 mM, sodium nitrite 15 mM; copper sulfate 1 mM (PHASE B). Mixing is done at room temperature (25° C.) (Fukuto et al., 2013).
The S-nitroso compound observed, which was absent […] the phases were mixed, is attributable to the S-nitroso pantetheine derivative.
At the same time, owing to the catalytic action of the traces of copper present, the corresponding nitrosothiol is also formed, and remains sufficiently stable for more than 1 hour at room temperature. Therefore, this formulation allows the rapid formation of nitrogen monoxide in a rapidly diffusible form and, at the same time, the formation of nitrosothiol that is sufficiently stable for the sustained release of nitrogen monoxide over time.

[4] = SNO-pantetheine group, Day 0 (baseline)
[5] = topical SNO-pantetheine, Day 30

Row | time nitrosothiol remains sufficiently stable [3] | Compound | constriction of corpus cavernosum tissue ([1]; scalar solutions 10^−8 M to 10^−3 M, Krebs solution pH 7.4, 37° C.) | relaxation of the tissue of the corpora cavernosa pre-constricted with norepinephrine (vasodilatory effect) [1] | EL (Ejaculation latency) [2, 4] | IF (Introduction frequency) [2, 4] | IL (Introduction latency) [2, 4] | MF (Mating frequency) [2, 4] | ML (Mating latency) [2, 4] | PEI (Post-ejaculatory interval) [2, 4] | EL (Ejaculation latency) [2, 5] | IF (Introduction frequency) [2, 5] | IL (Introduction latency) [2, 5] | MF (Mating frequency) [2, 5] | ML (Mating latency) [2, 5] | PEI (Post-ejaculatory interval) [2, 5] | effect on sexual behaviour in the diabetic rat model ([2]; topical application, vs. all the parameters assessed)
1 | – | NC[C@H](O)c1ccc(O)c(O)c1 [norepinephrine, reference compound] | about 1.5 mN | – | – | – | – | – | – | – | – | – | – | – | – | – | –
2 | – | S-nitrosothiol of alpha lipoic acid | – | behaviour that is very similar to that of the S-nitrosothiol of pantetheine; also recorded: exhibit the desired vasodilatory effect | – | – | – | – | – | – | – | – | – | – | – | – | –
3 | more than 1 hour | S-nitrosothiol of pantetheine [SNO-pantetheine] | – | effect of the norepinephrine was cancelled out; also recorded: exhibit the desired vasodilatory effect | 423.2 ± 12.5 s | 11.2 ± 0.9 number | 52.3 ± 3.9 s | 12.0 ± 1.7 number | 42.5 ± 2.9 s | 343.3 ± 10.9 s | 375.8 ± 10.8 s | 14.5 ± 0.8 number | 44.7 ± 4.2 s | 11.2 ± 0.3 number | 34.3 ± 2.5 s | 386.2 ± 14.3 s | able to induce an increase in sexual behaviour
